Assay results taken from patent US20060216327A1, “Multilayer coating for releasing biologically-active agents and method of making” (Bacterin, Inc., priority 2005, published 2006).

Test: Bupivacaine elution profile from coated stents of Example 4 in PBS flow chamber (HPLC)
Assay type: physicochemical
Conditions: coated stent of Example 4 (calcium phosphate base layer + PVA polymer layer), 10 ml PBS per day
Protocol: An elution analysis was performed to assay release of bupivacaine over time from the coated stents of Example 4. An 18 mm long test specimen having a known surface area was cut from one of the coated stents of Example 4 and placed in a flow chamber. For 7 days, the test specimen was bathed with 10 ml per day of a phosphate buffered saline (PBS) solution. Every 24 hours, a 100 μl sample was taken of the 10 ml of PBS effluent collected over the preceding 24 hour period. The amount of bupivacaine in a 10 μl aliquot of the sample was quantified using a reverse-phase high pressure liquid chromatography (HPLC) system including a […] silica column. A solution of 30% acetonitrile and 70% buffered acid (985 ml of HPLC-grade water, 15 ml 1.0 M HCl, and 1.38 grams monobasic NaH2PO4) was employed as the mobile phase for the HPLC analysis. The data from the HPLC analysis was then normalized against the surface area of the test specimen and 10 ml volume of PBS effluent. Each data point represents the amount of bupivacaine eluted into the PBS solution during the proceeding 24-hour period, with each data point expressed in terms of in μg of bupivacaine released per cm^2 of coated stent surface. […]

- release of bupivacaine from coated stent into PBS solution (days 1-3, attributed to the polymer layer): relative burst release
- release of bupivacaine from coated stent into PBS solution (days 4-7, attributed to erosion of the calcium phosphate base layer): more gradual release
SMILES: CCCCN1CCCCC1C(=O)Nc1c(C)cccc1C (centres unmarked) [bupivacaine]
